Test system: fibroblasts (dermal papilla, connective sheath, dermal)
Assay: Assaying of sulfated glycosaminoglycans in fibroblast culture (Blyscan)
Assay type: cell-based, human
Details: 7 days
Method: The fibroblasts are cultured in DMEM medium, 10% foetal calf serum (Gibco, Invitrogen), 1 mM MEM pyruvate (Gibco, Invitrogen) and 25 units/ml of penicillin-streptomycin (Gibco, Invitrogen). The dermal papilla fibroblast (P6), connective sheath fibroblast (P6) and dermal fibroblast are then counted using a Coulter Counter Z2 (Beckman Coulter inc., Fullerton, USA) and seeded at 2×10^5 cells per well in a 12-well plate, with the wells containing 1.5 ml of medium alone, which is the “control” condition, or being treated with 3 mM of 1,5-anhydro-6,8-dideoxy-L-glucooctitol. After 7 days, the supernatant is recovered and stored at −80° C. until the GAGs are assayed. […]
The proteins present in the lysate are assayed using the Dc Protein assay kit (Biorad). The amount of glycosaminoglycans is measured in the supernatant and the lysate.
The glycosaminoglycans are assayed using the Blyscan glycosaminoglycan isolation & concentration kit (Biocolor, Newtownabbey, Northern Ireland) and the Blyscan sulfated glycosaminoglycan assay kit. […] Each sample to be measured is mixed with 700 μl of the cetylpyridinium chloride solution in a 1.5 ml centrifuge tube, and then incubated on a rotary mixer thermostated at 37° C., at 250 rpm, for 2 hours. […] The absorbance of the solution at 656 nm is measured using a polystyrene semi-microcuvette on a Biomate 5 spectrometer (Thermo). […]

SMILES: CC(O)CC1OCC(O)C(O)C1O [1,5-anhydro-6,8-dideoxy-L-glucooctitol]
- increase in amount of glycosaminoglycans secreted (relative to control (medium alone), 3 mM in method): up to 7 times
- GAG synthesis by the fibroblasts (versus control (medium alone)): increase in GAG synthesis by the fibroblasts, proportional to the concentration
